Data reported in US9765105B2, “Macrolide compound” (Pulike Biological Engineering, Inc., priority 2013, dated 2017).

Experiments:
Assay in all cases: in vitro susceptibility, MIC by mini broth dilution
Format in all cases: cell-based
[1] = tested on: Staphylococcus aureus CVCC26003; settings: strain CVCC26003
Procedure, shortened: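 MICs were determined by mini broth dilution under NCCLS standards in CAMHB, using revived S. aureus CVCC26003 subcultured 20 h at 35° C. Compounds were two-fold serially diluted in DMSO across 11 wells, with duplicate rows. Bacterial suspension was diluted 1:200 in medium before inoculation.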

Haemophilus parasuis = tested on: Haemophilus parasuis
Procedure, shortened: (§1)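 MICs determined by mini broth dilution per NCCLS (now CLSI) standards. Strains revived from −20° C, subcultured twice on solid medium at 35° C for 20 h; compounds two-fold serially diluted in DMSO over 11 gradients, duplicate rows, bacterial suspension diluted 1:200 in liquid medium.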

[2] = tested on: Pasteurella multocida CVCC399; settings: strain CVCC399
Procedure, shortened: as §1

[3] = tested on: Actinobacillus pleuropneumoniae CVCC262; settings: strain CVCC262
Procedure, shortened: as §1

[4] = tested on: Streptococcus equines CVCC556; settings: strain CVCC556
Procedure, shortened: as §1

| SMILES | MIC values, Staphylococcus aureus CVCC26003 [1] | MIC values, Haemophilus parasuis (Haemophilus parasuis) | MIC values, Pasteurella multocida CVCC399 [2] | MIC values, Actinobacillus pleuropneumoniae CVCC262 [3] | MIC values, Streptococcus equines CVCC556 [4] |
| --- | --- | --- | --- | --- | --- |
| CCCN1C[C@H](C)[C@@H](O)[C@](C)(O)[C@@H](CC)OC(=O)[C@H](C)[C@@H](O[C@H]2C[C@@](C)(OC)[C@](O)(CNCc3ccc([N+](=O)[O-])cc3)[C@H](C)O2)[C@H](C)[C@@H](O[C@@H]2O[C@H](C)C[C@H](N(C)C)[C@H]2O)[C@](C)(O)C[C@H]1C [syzx-119] | 0.25 ug/mi | 0.25 ug/mi | 1 ug/mi | 0.25 ug/mi | 0.25 ug/mi |
| CCCN1C[C@H](C)[C@@H](O)[C@](C)(O)[C@@H](CC)OC(=O)[C@H](C)[C@@H](O[C@H]2C[C@@](C)(OC)[C@](O)(CNCc3ccc(Cl)cc3)[C@H](C)O2)[C@H](C)[C@@H](O[C@@H]2O[C@H](C)C[C@H](N(C)C)[C@H]2O)[C@](C)(O)C[C@H]1C [syzx-120] | 0.25 ug/mi | 0.25 ug/mi | 0.5 ug/mi | 0.25 ug/mi | 0.25 ug/mi |
| CCCN1C[C@H](C)[C@@H](O)[C@](C)(O)[C@@H](CC)OC(=O)[C@H](C)[C@@H](O[C@H]2C[C@@](C)(OC)[C@](O)(CNCc3cccnc3)[C@H](C)O2)[C@H](C)[C@@H](O[C@@H]2O[C@H](C)C[C@H](N(C)C)[C@H]2O)[C@](C)(O)C[C@H]1C [syzx-121] | 0.25 ug/mi | 0.25 ug/mi | 0.5 ug/mi | 0.25 ug/mi | 0.5 ug/mi |
| CCCN1C[C@H](C)[C@@H](O)[C@](C)(O)[C@@H](CC)OC(=O)[C@H](C)[C@@H](O[C@H]2C[C@@](C)(OC)[C@](O)(CNCCCOCC)[C@H](C)O2)[C@H](C)[C@@H](O[C@@H]2O[C@H](C)C[C@H](N(C)C)[C@H]2O)[C@](C)(O)C[C@H]1C [syzx-122] | 1 ug/mi | 0.5 ug/mi | 1 ug/mi | 1 ug/mi | 0.25 ug/mi |
| CCCN1C[C@H](C)[C@@H](O)[C@](C)(O)[C@@H](CC)OC(=O)[C@H](C)[C@@H](O[C@H]2C[C@@](C)(OC)[C@](O)(CNCCOC)[C@H](C)O2)[C@H](C)[C@@H](O[C@@H]2O[C@H](C)C[C@H](N(C)C)[C@H]2O)[C@](C)(O)C[C@H]1C [syzx-125] | 1 ug/mi | 0.5 ug/mi | 2 ug/mi | 0.5 ug/mi | 0.25 ug/mi |
| CCCN1C[C@H](C)[C@@H](O)[C@](C)(O)[C@@H](CC)OC(=O)[C@H](C)[C@@H](O[C@H]2C[C@@](C)(OC)[C@](O)(CN(C)CCO)[C@H](C)O2)[C@H](C)[C@@H](O[C@@H]2O[C@H](C)C[C@H](N(C)C)[C@H]2O)[C@](C)(O)C[C@H]1C [syzx-126] | 4 ug/mi | 4 ug/mi | 2 ug/mi | 4 ug/mi | 0.5 ug/mi |
| CCCN1C[C@H](C)[C@@H](O)[C@](C)(O)[C@@H](CC)OC(=O)[C@H](C)[C@@H](O[C@H]2C[C@@](C)(OC)[C@](O)(CNCc3cccc(OC)c3)[C@H](C)O2)[C@H](C)[C@@H](O[C@@H]2O[C@H](C)C[C@H](N(C)C)[C@H]2O)[C@](C)(O)C[C@H]1C [syzx-127] | 4 ug/mi | 1 ug/mi | 8 ug/mi | 1 ug/mi | 0.25 ug/mi |
| CCCN1C[C@H](C)[C@@H](O)[C@](C)(O)[C@@H](CC)OC(=O)[C@H](C)[C@@H](O[C@H]2C[C@@](C)(OC)[C@](O)(CNC3CCCC3)[C@H](C)O2)[C@H](C)[C@@H](O[C@@H]2O[C@H](C)C[C@H](N(C)C)[C@H]2O)[C@](C)(O)C[C@H]1C [syzx-130] | 0.25 ug/mi | 8 ug/mi | 0.5 ug/mi | 0.5 ug/mi | 0.25 ug/mi |
| CCCN1C[C@H](C)[C@@H](O)[C@](C)(O)[C@@H](CC)OC(=O)[C@H](C)[C@@H](O[C@H]2C[C@@](C)(OC)[C@](O)(CNCc3ccc(F)cc3F)[C@H](C)O2)[C@H](C)[C@@H](O[C@@H]2O[C@H](C)C[C@H](N(C)C)[C@H]2O)[C@](C)(O)C[C@H]1C [syzx-131] | 0.25 ug/mi | 0.25 ug/mi | 0.5 ug/mi | 0.25 ug/mi | 0.25 ug/mi |
| CCCN1C[C@H](C)[C@@H](O)[C@](C)(O)[C@@H](CC)OC(=O)[C@H](C)[C@@H](O[C@H]2C[C@@](C)(OC)[C@](O)(CNc3ccc(Cl)nn3)[C@H](C)O2)[C@H](C)[C@@H](O[C@@H]2O[C@H](C)C[C@H](N(C)C)[C@H]2O)[C@](C)(O)C[C@H]1C [syzx-132] | 1 ug/mi | 0.5 ug/mi | 2 ug/mi | 0.5 ug/mi | 0.25 ug/mi |
| CCCN1C[C@H](C)[C@@H](O)[C@](C)(O)[C@@H](CC)OC(=O)[C@H](C)[C@@H](O[C@H]2C[C@@](C)(OC)[C@](O)(CNCCCCO)[C@H](C)O2)[C@H](C)[C@@H](O[C@@H]2O[C@H](C)C[C@H](N(C)C)[C@H]2O)[C@](C)(O)C[C@H]1C [syzx-133] | 1 ug/mi | 0.5 ug/mi | 2 ug/mi | 1 ug/mi | 0.5 ug/mi |
| CCCN1C[C@H](C)[C@@H](O)[C@](C)(O)[C@@H](CC)OC(=O)[C@H](C)[C@@H](O[C@H]2C[C@@](C)(OC)[C@](O)(CNC(C)CCc3ccccc3)[C@H](C)O2)[C@H](C)[C@@H](O[C@@H]2O[C@H](C)C[C@H](N(C)C)[C@H]2O)[C@](C)(O)C[C@H]1C (some centres unmarked) [syzx-134] | 0.25 ug/mi | 0.25 ug/mi | 0.5 ug/mi | 0.25 ug/mi | 0.25 ug/mi |
| CCCN1C[C@H](C)[C@@H](O)[C@](C)(O)[C@@H](CC)OC(=O)[C@H](C)[C@@H](O[C@H]2C[C@@](C)(OC)[C@](O)(CNCc3cccc(OC)c3)[C@H](C)O2)[C@H](C)[C@@H](O[C@@H]2O[C@H](C)C[C@H](N(C)C)[C@H]2O)[C@](C)(O)C[C@H]1C [syzx-135] | 1 ug/mi | 0.5 ug/mi | 2 ug/mi | 1 ug/mi | 0.5 ug/mi |
